# Laboratory results: patent US8394828B2 (Janssen Pharmaceutica, NV, priority 2003, dated 2013)
# Read-outs that look alike come from different tables or passages of the source.
# Key:
# human VR1 [1] = molecular target: T1, human VR1 (Homo sapiens, UniProt Q8NER1); experiment: Human VR1 [3H] RTX binding assay; settings: for Ki: hVR1; for inhibition at 1 µM: compound at 1 μM
# T1 construct: expressed in transfected cells; host or cells: HEK293
# Description: Compounds of the present invention were tested for their ability to inhibit the binding of [^3H] RTX to hVR1 receptors in a [^3H]
# HEK293 cells were transfected with human VR1 vanilloid receptors and washed with Hank's Balanced Salt Solution, dissociated with cell dissociation buffer (Sigma), and then centrifuged at 1000×g for 5 min. […] The pelleted membranes were kept in an −80° C. freezer.
# Approximately 120 μg protein/ml from membranes were incubated with indicated concentrations of [^3H] RTX in 0.5 ml of the HEPES buffer (pH 7.4) containing 0.25 mg/mL fatty acid-free bovine serum albumin at 37° C. for 60 min. […] The tip of the microcentrifuge tube containing the pellet was cut off. Bound radioactivity was quantified by scintillation counting. Non-specific binding was tested in the presence of 200 nM unlabeled RTX.
# human VR1 [2] = molecular target: T1, human VR1; experiment: Human VR1 functional assay (intracellular Ca++, FLIPR, capsaicin challenge); type: cell-based
# Description: The functional activity of the test compounds was determined by measuring changes in intracellular calcium concentration using a Ca^++-sensitive fluorescent dye and FLIPR™ technology.
# EC50 or IC50 values were determined from dose-response studies.
# [3] = 3H-RTX binding, read-out: 3H-RTX binding assay Ki hVR1
# [4] = FLIPR functional assay IC50 hVR1 60 min, 60 min
# [5] = hVR1, capsaicin challenge, read-out: FLIPR functional assay IC50 hVR1
# T1 sequence (Q8NER1 whole entry): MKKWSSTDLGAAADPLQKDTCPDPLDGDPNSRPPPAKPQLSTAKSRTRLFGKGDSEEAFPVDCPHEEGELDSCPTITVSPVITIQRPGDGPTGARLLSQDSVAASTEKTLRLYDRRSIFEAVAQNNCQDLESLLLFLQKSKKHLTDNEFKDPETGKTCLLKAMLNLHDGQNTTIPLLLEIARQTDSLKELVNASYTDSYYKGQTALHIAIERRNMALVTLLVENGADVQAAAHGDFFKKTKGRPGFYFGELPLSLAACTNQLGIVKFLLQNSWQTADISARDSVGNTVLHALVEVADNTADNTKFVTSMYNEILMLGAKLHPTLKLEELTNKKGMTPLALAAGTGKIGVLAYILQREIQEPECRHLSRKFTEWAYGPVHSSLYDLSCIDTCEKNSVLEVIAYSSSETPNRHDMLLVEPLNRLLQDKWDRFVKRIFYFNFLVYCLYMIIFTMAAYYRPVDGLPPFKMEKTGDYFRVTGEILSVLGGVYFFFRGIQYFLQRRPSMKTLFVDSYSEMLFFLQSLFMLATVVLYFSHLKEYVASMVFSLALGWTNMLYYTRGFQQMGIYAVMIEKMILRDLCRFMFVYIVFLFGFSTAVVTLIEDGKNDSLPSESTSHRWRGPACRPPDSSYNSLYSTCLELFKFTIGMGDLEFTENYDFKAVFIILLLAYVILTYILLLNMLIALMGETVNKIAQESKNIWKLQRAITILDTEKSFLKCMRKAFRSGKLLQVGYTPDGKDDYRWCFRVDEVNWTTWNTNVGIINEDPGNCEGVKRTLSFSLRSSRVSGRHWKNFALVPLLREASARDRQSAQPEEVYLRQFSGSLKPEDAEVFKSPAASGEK
Ki (human VR1 [1]; [3]) [nM],IC50 (human VR1 [2]; [4]) [nM],IC50 (human VR1 [2]; [5]) [nM],inhibition at 1 µM (human VR1 [1]; 3H-RTX binding) [%],Compound,"Ki (human VR1 [1]; 3H-RTX binding assay Ki hVR1, 3H-RTX binding) [nM]"
124,,215,44,O=C(Nc1cnc2ccccc2c1)c1ccc(N2CCCCCC2)nc1 [6-Azepan-1-yl-N-quinolin-3-yl-nicotinamide],
,,3200,32,O=C(Nc1cnc2ccccc2c1)c1ccc(NC2CCCC2)cc1 [4-Cyclopentylamino-N-quinolin-3-yl-benzamide],
124,,170,81,CCCCC1CCC(C(=O)Nc2cnc3ccccc3c2)CC1 (centres unmarked) [4-Butyl-cyclohexanecarboxylic acid quinolin-3-ylamide],
,,30,,"CC1(C)CCC(C)(C)c2cc(C=CC(=O)Nc3cnc4ccccc4c3Cl)ccc21 [N-(4-Chloro-quinolin-3-yl)-3-(5,5,8,8-tetramethyl-5,6,7,8-tetrahydro-naphthalen-2-yl)-acrylamide]",
,,390,43,CN(Cc1ccccc1)c1ccc(C(=O)Nc2cnc3ccccc3c2)cn1 [6-(Benzyl-methyl-amino)-N-quinolin-3-yl-nicotinamide],
13,,70,,"CC1(C)CCC(C)(C)c2cc(CCC(=O)Nc3cnc4ccccc4c3)ccc21 [N-Quinolin-3-yl-3-(5,5,8,8-tetramethyl-5,6,7,8-tetrahydro-naphthalen-2-yl)-propionamide]",
36.8,,420,99,O=C(Nc1cnc2ccccc2c1)c1ccc(N2CC[C@@H]3CCCC[C@@H]3C2)nc1 (relative stereo) [cis-6-(Octahydro-isoquinolin-2-yl)-N-quinolin-3-yl-nicotinamide],
9.86,279,3700,80,O=C(Nc1cnc2ccccc2c1)c1ccc(N2CC3CCCC(C3)C2)nc1 [6-(3-Aza-bicyclo{3.3.1}non-3-yl)-N-quinolin-3-yl-nicotinamide],
221,,10000,82,"CCCCC(C)(C)c1ccc(CCCC(=O)Nc2cnc3ccccc3c2)cc1 [4-{4-(1,1-Dimethyl-pentyl)-phenyl}-N-quinolin-3-yl-butyramide]",
219,166,610,,CCCN(CCC)c1ccc(C(=O)Nc2cnc3ccccc3c2)cc1 [4-Dipropylamino-N-quinolin-3-yl-benzamide],
,,65,,"CC1(C)CCC(C)(C)c2cc(C=CC(=O)Nc3cnc4ccccc4c3)ccc21 [N-Quinolin-3-yl-3-(5,5,8,8-tetramethyl-5,6,7,8-tetrahydro-naphthalen-2-yl)-acrylamide]",
74.1,156,10000,97,CN(CCCc1ccccc1)c1ccc(C(=O)Nc2cnc3ccccc3c2)cc1 [4-{Methyl-(3-phenyl-propyl)-amino}-N-quinolin-3-yl-benzamide],
20.9,1300,10000,99,"CN(CCC(C)(C)C)c1ccc(C(=O)Nc2cnc3ccccc3c2)cc1 [4-{(3,3-Dimethyl-butyl)-methyl-amino}-N-quinolin-3-yl-benzamide]",
18.5,,290,,O=C(Nc1cnc2ccccc2c1)c1ccc(N2CCCCCCC2)cc1 [4-Azocan-1-yl-N-quinolin-3-yl-benzamide],
117,,490,93,"CCCC1CCN(c2ccc(C(=O)Nc3cnc4ccccc4c3)cn2)CC1 [4-Propyl-3,4,5,6-tetrahydro-2H-{1,2′}bipyridinyl-5′-carboxylic acid quinolin-3-ylamide]",
200,,10000,,"O=C(CCc1ccc2c(c1)CCCC2)Nc1cnc2ccccc2c1 [N-Quinolin-3-yl-3-(5,6,7,8-tetrahydro-naphthalen-2-yl)-propionamide]",
137,,10000,55,"CCC(C)(C)c1ccc(C=CCC(=O)Nc2cnc3ccccc3c2)cc1 [4-{4-(1,1-Dimethyl-propyl)-phenyl}-but-3-enoic acid quinolin-3-ylamide]",
,,730,,O=C(Nc1cnc2ccccc2c1)c1ccc(NC2CCCCCC2)cc1 [4-Cycloheptylamino-N-quinolin-3-yl-benzamide],
,,107,,CN(c1ccc(C(=O)Nc2cnc3ccccc3c2Cl)cc1)C1CCCCC1 [N-(4-Chloro-quinolin-3-yl)-4-(cyclohexyl-methyl-amino)-benzamide],

# Further lines, the compound ahead of its results:
Compound,Ki (human VR1 [1]; [3]) [nM],IC50 (human VR1 [2]; [4]) [nM],IC50 (human VR1 [2]; [5]) [nM],inhibition at 1 µM (human VR1 [1]; 3H-RTX binding) [%],"Ki (human VR1 [1]; 3H-RTX binding assay Ki hVR1, 3H-RTX binding) [nM]"
O=C(CCc1ccc(CC2CCCCC2)cc1)Nc1cnc2ccccc2c1 [3-(4-Cyclohexylmethyl-phenyl)-N-quinolin-3-yl-propionamide],94.1,35,670,,
Cc1cc(C(=O)Nc2cnc3ccccc3c2)ccc1N(C)C1CCCCC1 [4-(Cyclohexyl-methyl-amino)-3-methyl-N-quinolin-3-yl-benzamide],22,23,560,,
CC(C)(c1ccc(CCC(=O)Nc2cnc3ccccc3c2)cc1)C1CCCCC1 [3-{4-(1-Cyclohexyl-1-methyl-ethyl)-phenyl}-N-quinolin-3-yl-propionamide],31.5,,570,,
CCCCCN(C)c1ccc(C(=O)Nc2cnc3ccccc3c2)cc1C [3-Methyl-4-(methyl-pentyl-amino)-N-quinolin-3-yl-benzamide],37.9,,54,107,
O=C(Nc1cnc2ccccc2c1Cl)c1ccc2c(ccn2C2CCCCC2)c1 [1-Cyclohexyl-1H-indole-5-carboxylic acid (4-chloro-quinolin-3-yl)-amide],,,166,,
"O=C(Nc1cnc2ccccc2c1)c1ccc(N2CCCCC2)nc1 [3,4,5,6-Tetrahydro-2H-{1,2′}bipyridinyl-5′-carboxylic acid quinolin-3-ylamide]",20.5,140,4300,,
CCCCCNc1cccc(C(=O)Nc2cnc3ccccc3c2)c1 [3-Pentylamino-N-quinolin-3-yl-benzamide],,,2700,12,
CCCN(c1ccc(C(=O)Nc2cnc3ccccc3c2)cc1)C1CCCCC1 [4-(Cyclohexyl-propyl-amino)-N-quinolin-3-yl-benzamide],84.6,,10000,,
O=C(CCc1ccc2c(c1)CCC2)Nc1cnc2ccccc2c1 [3-Indan-5-yl-N-quinolin-3-yl-propionamide],158,,10000,,
"O=C(Nc1cnc2ccccc2c1)c1ccc2c(c1)CCN2C1CCCCC1 [1-Cyclohexyl-2,3-dihydro-1H-indole-5-carboxylic acid quinolin-3-ylamide]",4.87,74,44,103,
CCCCOc1ccc(C(=O)Nc2cnc3ccccc3c2)cc1 [4-Butoxy-N-quinolin-3-yl-benzamide],155,,10000,,
"CC(=O)N1CCc2cc(C(=O)Nc3cnc4ccccc4c3)ccc21 [1-Acetyl-2,3-dihydro-1H-indole-5-carboxylic acid quinolin-3-ylamide]",,,3150,1,
CCCCCCCNc1cccc(C(=O)Nc2cnc3ccccc3c2)c1 [3-Heptylamino-N-quinolin-3-yl-benzamide],,,10000,20,
"CC1CC(C)CN(c2ccc(C(=O)Nc3cnc4ccccc4c3)cc2)C1 (centres unmarked) [4-(3,5-Dimethyl-piperidin-1-yl)-N-quinolin-3-yl-benzamide]",86.1,,1800,91,
CCCCCCCN(C)c1cccc(C(=O)Nc2cnc3ccccc3c2)c1 [3-(Heptyl-methyl-amino)-N-quinolin-3-yl-benzamide],142,,8800,82,
CCCn1ccc2cc(CCC(=O)Nc3cnc4ccccc4c3)ccc21 [3-(1-Propyl-1H-indol-5-yl)-N-quinolin-3-yl-propionamide],264,,480,59,
"CCCCCN1CCCc2cc(C(=O)Nc3cnc4ccccc4c3)ccc21 [1-Pentyl-1,2,3,4-tetrahydro-quinoline-6-carboxylic acid quinolin-3-ylamide]",,470,1600,93,39.1
CCCCCc1ccc(CCC(=O)Nc2cnc3ccccc3c2)cc1 [3-(4-Pentyl-phenyl)-N-quinolin-3-yl-propionamide],181,590,,,
CCCC1CCN(c2ccc(C(=O)Nc3cnc4ccccc4c3)cc2)CC1 [4-(4-Propyl-piperidin-1-yl)-N-quinolin-3-yl-benzamide],103,170,16000,92,
CC(C)(C)c1ccc(C#CC(=O)Nc2cnc3ccccc3c2)cc1 [3-(4-tert-Butyl-phenyl)-propynoic acid quinolin-3-ylamide],,,66,,
O=C(Nc1cnc2ccccc2c1)c1ccc2c(ccn2C2CCCCC2)c1 [1-Cyclohexyl-1H-indole-5-carboxylic acid quinolin-3-ylamide],,,74,,
CCCCCN(C)c1ccccc1C(=O)Nc1cnc2ccccc2c1 [2-(Methyl-pentyl-amino)-N-quinolin-3-yl-benzamide],,,,21,
"O=C(Nc1cnc2ccccc2c1)c1ccc(N2CCC3(CC2)OCCO3)cc1 [4-(1,4-Dioxa-8-aza-spiro[4.5]dec-8-yl)-N-quinolin-3-yl-benzamide]",,,,9,
